Target: human norepinephrine transporter (Homo sapiens (Human), UniProt P23975)
Test: Human NET (norepinephrine transporter) uptake assay
Type: cell-based
Settings: comparison in words, used to assign configuration
Experimental: This protocol was designed to measure inhibition of uptake by the human norepinephrine transporter. […] The Assay Buffer (AB) was 1×HBSS and 0.02 M HEPES.
(§1) The HEK293F cells were transfected with the human norepinephrine transporter and frozen in 1 mL aliquots at about 1E+07 cells/mL. On the day of the experiment, the cells were removed from −80° C. or liquid nitrogen and thawed in a room temperature water bath. The cells were dilute to about 1-2E+06 with Freestyle medium. A 1 mL sample (1:2 dilution) was prepared, and the cells were counted. The cells were spun at 1100 rpm for 5 minutes, and the medium was aspirated off. The cells were resuspend in medium at 1.5E+06 cells/mL for about 60,000 cells per well. 40 μL of cells were dispensed per well in the Biocoat plates. The plates were spun at 1100 rpm for 1 minute to improve homogeneity of the cell layer and were incubated at 37° C. for a minimum of 3 hours.
(§2) 12 μL of test compound (10 mM) in DMSO was added to the wells, and nomifensine was used as a control. […] The neurotransmitter transporter dye was prepared in AB prior to use.
Due to the proprietary nature of the dye formulation, all dye concentrations were expressed as a percentage of the vendor-recommended dye reconstitution. Thus, the above calculations were valid when both [dye] and Km were expressed in the same units (%). Compounds were tested in triplicate (n=3).

human norepinephrine transporter, sequence (P23975 whole entry): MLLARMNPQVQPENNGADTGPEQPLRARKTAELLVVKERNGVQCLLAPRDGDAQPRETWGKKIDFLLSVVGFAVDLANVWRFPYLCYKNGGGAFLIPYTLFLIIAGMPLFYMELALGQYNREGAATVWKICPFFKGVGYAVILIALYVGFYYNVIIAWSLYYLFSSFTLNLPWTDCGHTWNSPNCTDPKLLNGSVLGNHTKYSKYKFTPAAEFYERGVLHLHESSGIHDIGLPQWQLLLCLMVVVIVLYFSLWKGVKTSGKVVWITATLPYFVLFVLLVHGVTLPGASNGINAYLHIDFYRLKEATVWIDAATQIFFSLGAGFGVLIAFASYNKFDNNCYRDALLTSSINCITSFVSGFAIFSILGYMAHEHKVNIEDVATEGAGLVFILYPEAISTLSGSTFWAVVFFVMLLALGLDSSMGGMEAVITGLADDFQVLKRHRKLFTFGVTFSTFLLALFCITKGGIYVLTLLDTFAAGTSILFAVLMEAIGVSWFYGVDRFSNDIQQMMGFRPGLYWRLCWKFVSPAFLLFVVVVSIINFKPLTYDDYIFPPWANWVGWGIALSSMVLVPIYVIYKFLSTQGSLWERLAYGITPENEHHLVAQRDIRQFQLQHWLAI

Row | SMILES | potency at hNET relative to the other enantiomer or epimer
1 | CNC[C@H](c1ccc2ccccc2c1)[C@H](O)c1cncc(OC)c1 [compound 92] | more potent
2 | CNC[C@H](C[C@H](O)c1ccccc1)c1ccc2ccccc2c1 [compound 93] | less potent
3 | NC[C@H](c1ccc2ccccc2c1)[C@@H](O)c1ccncc1Cl [compound 95] | higher inhibitory activity
4 | CNC[C@@H](c1ccc2ccccc2c1)[C@H](O)c1ccccc1F [compound 96] | less potent
5 | CNC[C@@H](c1ccc2ccccc2c1)[C@H](O)c1ccccn1 [compound 99] | lower inhibitory activity
6 | CNC[C@H](c1ccc(Cl)c(Cl)c1)[C@@H](O)c1ccccc1-c1cccs1 [compound 100] | higher inhibitory activity
7 | CNC[C@@H](c1ccc2ccccc2c1)[C@@H](O)c1cccnc1 [compound 103] | less potent
8 | CNC[C@H](c1ccc(Cl)c(Cl)c1)[C@@H](O)c1cccnc1OC [compound 104] | higher inhibitory activity
9 | CNC[C@@H](c1ccc(Cl)c(Cl)c1)[C@@H](O)c1ccsc1 [compound 106] | lower potency
10 | NCC(c1ccc2ccccc2c1)C(O)c1ccc(F)cc1F (centres unmarked) [compound 107] | higher potency
11 | CNC[C@@H](c1ccc(Br)c(Cl)c1)[C@@H](O)c1ccccc1 [compound 110] | lower potency
12 | NC[C@@H](c1ccc2ccccc2c1)C(O)c1ccncc1Cl (some centres unmarked) [compound 118] | lower potency
13 | CNC[C@@H](c1ccc2ccccc2c1)[C@@H](O)c1cncc(OC)c1 [compound 122] | lower inhibitory activity
14 | NC[C@@H](c1ccc2ccccc2c1)[C@@H](O)c1ccc(Cl)nc1 [compound 126] | lower potency
15 | NC[C@@H](Cc1ccccc1O)c1ccc2ccccc2c1 [compound 133] | more potent
16 | CNC[C@H](c1ccc2ccccc2c1)[C@@H](O)c1cc(F)cc(F)c1 [compound 141] | more potent
17 | CNC[C@@H](c1ccc2ccccc2c1)[C@H](O)c1cc(F)cc(F)c1 [compound 142] | less potent
18 | CNC[C@H](c1ccc2ccccc2c1)[C@H](O)c1ccc2c(c1)OCCO2 [compound 143] | higher potency
19 | CNCC(CCc1ccccc1)[C@@H](O)c1ccccc1 (some centres unmarked) [compound 147] | lower potency
20 | CNCC(c1ccc2ccccc2c1)[C@@H](O)c1ccc(Cl)nc1 (some centres unmarked) [compound 169] | lower potency
21 | CNC[C@@H](c1ccc(Cl)c(Cl)c1)[C@@H](O)c1cccnc1OC [compound 171] | less potent
22 | CNC[C@@H](c1ccc(Cl)c(Cl)c1)[C@@H](OC)c1cccc(NS(=O)(=O)C(F)(F)F)c1 [compound 172] | less potent

Results, then the compound that gave them:

Row | potency at hNET relative to the other enantiomer or epimer | SMILES
23 | more potent | CNC[C@H](c1ccc(Cl)c(Cl)c1)[C@@H](O)c1cccc(NC(C)=O)c1 [compound 94]
24 | more potent | CNC[C@H](c1ccc(Cl)c(Cl)c1)[C@@H](O)c1ccccc1SC [compound 97]
25 | less potent | CNC[C@@H](c1ccc(Cl)c(Cl)c1)[C@H](O)c1cccc(NC(C)=O)c1 [compound 98]
26 | higher potency | CNC[C@H](c1ccc(Cl)c(Cl)c1)[C@H](O)c1cccc(S(C)(=O)=O)c1 [compound 101]
27 | more potent | CNC[C@H](c1ccc(Cl)c(Cl)c1)[C@H](O)c1cccc([N+](=O)[O-])c1 [compound 102]
28 | lower potency | CNC[C@@H](c1ccc(Cl)c(Cl)c1)[C@@H](O)c1cncc(OC)c1 [compound 109]
29 | weak hNET potency | CNC[C@@H](c1ccc(Cl)c(Cl)c1)[C@@H](O)c1ccccc1 [compound 114]
30 | lower inhibitory activity | CNC[C@@H](c1ccc(Cl)c(Cl)c1)[C@@H](O)c1cccc(SC)c1 [compound 120]
31 | lower potency | CNC[C@@H](c1ccc(Cl)c(Cl)c1)[C@@H](O)c1cccc(NS(=O)(=O)C(F)(F)F)c1 [compound 121]
32 | lower inhibitory activity | CNC[C@@H](c1ccc(Cl)c(Cl)c1)[C@@H](O)c1cccc(N2CCOCC2)c1 [compound 125]
33 | higher inhibitory activity | CNC[C@H](c1ccc(Cl)c(Cl)c1)[C@@H](O)c1cccc(NS(=O)(=O)C(F)(F)F)c1 [compound 127]
34 | less potent | CNC[C@@H](c1ccc(Cl)c(Cl)c1)[C@@H](O)c1ccccc1[S+](C)[O-] (some centres unmarked) [compound 128]
35 | higher potency | CNC[C@H](c1ccc(Cl)c(Cl)c1)[C@H](O)c1cccc(I)c1 [compound 151]
36 | higher potency | CNC[C@H](c1ccc(Cl)c(Cl)c1)[C@@H](O)c1ccccc1I [compound 152]
37 | lower potency | CNC[C@@H](c1ccc(Cl)c(Cl)c1)[C@@H](O)c1cccc(SC)c1 [compound 154]
38 | lower potency | CNC[C@@H](c1ccc(Cl)c(Cl)c1)[C@@H](O)c1cccc(OC)n1 [compound 157]
39 | more potent | CCc1cccc([C@@H](O)[C@H](CNC)c2ccc(Cl)c(Cl)c2)c1 [compound 159]
40 | greater hNET potency | CNC[C@H](c1ccc(Cl)c(Cl)c1)[C@H](O)c1ccccc1OC [compound 160]
41 | more potent | CNC[C@H](c1ccc(Cl)c(Cl)c1)[C@@H](O)c1cccc(Br)c1 [compound 161]
42 | less potent | CNC[C@@H](c1ccc(Cl)c(Cl)c1)[C@@H](O)c1cccc(Br)c1 [compound 162]
43 | more potent | CNC[C@H](c1ccc(Cl)c(Cl)c1)[C@@H](O)c1cccc(SC)c1 [compound 163]
44 | greater potency | CNC[C@H](c1ccc(Cl)c(Cl)c1)[C@H](O)c1ccccc1I [compound 164]
45 | higher potency | CNC[C@H](c1ccc(Cl)c(Cl)c1)[C@@H](O)c1cccc(I)c1 [compound 165]
46 | more potent | CNC[C@H](c1ccc(Cl)c(Cl)c1)[C@H](O)c1cncc(OC)c1 [compound 166]
47 | higher potency | CNC[C@H](c1ccc(Cl)c(Cl)c1)[C@H](O)c1cccc(OC)n1 [compound 167]

Same assay, conditions: stated in synthesis example

Row | SMILES | potency at hNET
48 | CCc1ccccc1[C@@H](O)[C@H](CNC)c1ccc(Cl)c(Cl)c1 [compound 158] | 6 nM

Target: human dopamine transporter (Homo sapiens (Human), UniProt Q01959)
Sequence (Q01959 whole entry): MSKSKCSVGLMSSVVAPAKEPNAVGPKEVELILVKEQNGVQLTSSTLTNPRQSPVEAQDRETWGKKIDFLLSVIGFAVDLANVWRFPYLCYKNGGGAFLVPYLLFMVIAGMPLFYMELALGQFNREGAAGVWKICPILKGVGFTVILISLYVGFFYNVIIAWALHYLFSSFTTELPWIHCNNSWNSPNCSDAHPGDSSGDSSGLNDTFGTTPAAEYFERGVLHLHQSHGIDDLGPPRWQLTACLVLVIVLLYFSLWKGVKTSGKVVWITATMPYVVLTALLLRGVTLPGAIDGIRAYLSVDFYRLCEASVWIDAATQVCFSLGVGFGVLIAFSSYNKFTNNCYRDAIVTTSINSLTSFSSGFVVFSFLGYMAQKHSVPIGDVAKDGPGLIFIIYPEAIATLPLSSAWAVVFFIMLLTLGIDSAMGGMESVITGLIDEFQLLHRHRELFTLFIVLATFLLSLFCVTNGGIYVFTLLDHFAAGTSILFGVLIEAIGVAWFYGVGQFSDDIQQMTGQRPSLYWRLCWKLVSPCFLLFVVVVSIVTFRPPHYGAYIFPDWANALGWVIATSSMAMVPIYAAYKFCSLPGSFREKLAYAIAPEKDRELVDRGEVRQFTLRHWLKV
Test: Human DAT (dopamine transporter) uptake assay
Type: cell-based
Settings: read-out: hDAT Ki
Experimental: This protocol was designed to measure inhibition of uptake by the human dopamine transporter. […] The Assay Buffer (AB) was 1×HBSS and 0.02 M HEPES.
as §1, with “dopamine” for “norepinephrine”
as §2
Due to the proprietary nature of the dye formulation, all dye concentrations were expressed as a percentage of the vendor-recommended dye reconstitution. Thus, the above calculations were valid when both [dye] and K1 were expressed in the same units (%). Compounds were tested in triplicate (n=3).

Row | SMILES | Ki
49 | NC[C@@H](c1ccc2ccccc2c1)[C@@H](O)c1ccccc1 [Compound 88] | 80.4 nM
50 | NCC(c1ccc2ccccc2c1)[C@@H](O)c1ccccc1 (some centres unmarked) [Compound 91] | 249 nM

System: not listed separately
Test: pKa of basic centres (Table 1)
Type: physicochemical
Settings: first base, e.g., an aliphatic primary, secondary, or tertiary amine; read-out: pKa (Base 1)

Row | SMILES | pKa
51 | CNCC(Cc1ccccc1F)c1ccc2ccccc2c1 (racemic) [Compound 36] | 10
52 | CNCC(Cc1ccccc1F)c1ccc2ccccc2c1 (centres unmarked) [Compound 17] | 10
53 | NC[C@@H](c1ccc2ccccc2c1)[C@@H](O)c1ccccc1 [Compound 88] | 8.7
54 | NCC(c1ccc2ccccc2c1)[C@@H](O)c1ccccc1 (some centres unmarked) [Compound 91] | 8.7
55 | CNC[C@H](c1ccc2ccccc2c1)[C@H](OCC(=O)N1CC[C@H](OC)C1)c1ccccc1 [Compound 131] | 9.6
56 | CNC[C@H](Cc1ccccc1F)c1ccc2ccccc2c1 [Compound 138] | 10
